Several values for one entry are separate records, joined by “and”; a condition that tells them apart may be missing. Equal values may be shown once. Read-outs that look alike come from different tables or passages of the source. Values belong to the molecule of their own block, whether it stands above or below them.
Key:
A549 cells = assay: CCK-8 antiproliferation assay, A549; settings: for Inhibitory efficacy: A549 cells
Description: (§1) The compounds were dissolved in DMSO to make a 20 μM stock solution and diluted to the concentration of working solutions with complete growth medium before administration.
(§2) Cells were seeded in 96-well plates: 3,000–5,000 cells/well in 100 ul. One day after seeding, the test compounds at concentration between 1.0 and 16.0 μ M or 0.1% DMSO (as control) were added to cells in triplicate. 48 h later, CCK-8 was added and incubated the plate for 1–4 h in the incubator. The absorbance at 450 nm were measured using a microplate reader (Bio-Tek).

PC-9 cells = assay: CCK-8 antiproliferation assay, PC-9; settings: for IC50: PC-9, 48 h, read-out: IC50 (μM) PC-9; for inhibition at 4 µM: PC-9, read-out: Inhibitory efficacy, PC-9, 4uM, single repeats (Repeat 1-3), given as fraction; for inhibition at 8 µM: PC-9, read-out: Inhibitory efficacy, PC-9, 8uM, single repeats (Repeat 1-3), given as fraction; for inhibition at 16 µM: PC-9, read-out: Inhibitory efficacy, PC-9, 16uM, single repeats (Repeat 1-3), given as fraction; for Inhibitory efficacy: single repeats (Repeat 1-3), given as fraction
wild-type EGFR = wild-type EGFR (Homo sapiens, UniProt P00533); assay: EGFR kinase assay (ELISA); settings: for IC50: IC50 (μM) EGFR, ELISA, 3 μmol/L ATP
wild-type EGFR, sequence (P00533 25-1210): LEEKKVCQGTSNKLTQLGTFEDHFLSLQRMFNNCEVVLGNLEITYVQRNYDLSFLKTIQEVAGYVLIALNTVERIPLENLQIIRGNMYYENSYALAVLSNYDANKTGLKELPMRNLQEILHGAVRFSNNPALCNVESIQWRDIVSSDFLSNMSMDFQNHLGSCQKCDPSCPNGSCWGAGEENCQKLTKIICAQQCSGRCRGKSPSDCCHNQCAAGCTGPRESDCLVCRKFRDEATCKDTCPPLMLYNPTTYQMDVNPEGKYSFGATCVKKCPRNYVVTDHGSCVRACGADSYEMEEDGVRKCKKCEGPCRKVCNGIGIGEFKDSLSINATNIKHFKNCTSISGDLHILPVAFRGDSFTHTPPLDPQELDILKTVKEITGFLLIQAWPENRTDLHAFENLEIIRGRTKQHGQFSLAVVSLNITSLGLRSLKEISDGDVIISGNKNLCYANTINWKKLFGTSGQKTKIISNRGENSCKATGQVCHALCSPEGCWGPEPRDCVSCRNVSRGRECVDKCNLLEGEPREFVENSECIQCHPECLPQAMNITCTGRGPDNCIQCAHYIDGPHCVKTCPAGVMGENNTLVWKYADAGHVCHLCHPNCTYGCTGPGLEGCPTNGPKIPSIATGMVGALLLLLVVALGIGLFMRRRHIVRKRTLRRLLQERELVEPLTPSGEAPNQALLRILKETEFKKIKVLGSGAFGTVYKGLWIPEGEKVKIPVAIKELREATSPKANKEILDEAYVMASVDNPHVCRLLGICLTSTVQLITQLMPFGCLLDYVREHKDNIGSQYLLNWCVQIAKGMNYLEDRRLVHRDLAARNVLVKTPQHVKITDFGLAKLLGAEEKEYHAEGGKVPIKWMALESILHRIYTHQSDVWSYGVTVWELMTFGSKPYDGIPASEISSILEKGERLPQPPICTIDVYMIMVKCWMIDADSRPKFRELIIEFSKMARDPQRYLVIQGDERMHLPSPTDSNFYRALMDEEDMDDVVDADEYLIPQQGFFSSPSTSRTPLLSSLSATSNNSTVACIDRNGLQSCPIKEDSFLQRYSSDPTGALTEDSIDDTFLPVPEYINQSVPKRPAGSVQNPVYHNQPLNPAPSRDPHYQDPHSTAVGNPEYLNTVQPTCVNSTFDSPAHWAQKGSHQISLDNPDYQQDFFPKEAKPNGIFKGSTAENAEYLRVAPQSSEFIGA

H1975 cells = assay: CCK-8 antiproliferation assay, H1975; settings: for Inhibitory efficacy: H1975 cells
Description: as §1, §2

H460 cells = assay: CCK-8 antiproliferation assay, H460
[1] = 2uM, given as fraction, Repeat 1-3
[2] = 4uM, given as fraction, Repeat 1-3
[3] = 8uM, given as fraction, Repeat 1-3
[4] = 16uM, given as fraction, Repeat 1-3
[5] = Homo sapiens, A549, read-out: Inhibitory efficacy, A549 cells, 2uM, given as fraction, Repeat 1-3
[6] = Homo sapiens, A549, read-out: Inhibitory efficacy, A549 cells, 4uM, given as fraction, Repeat 1-3
[7] = Homo sapiens, A549, read-out: Inhibitory efficacy, A549 cells, 8uM, given as fraction, Repeat 1-3
[8] = Homo sapiens, A549, read-out: Inhibitory efficacy, A549 cells, 16uM, given as fraction, Repeat 1-3
[9] = 0.3 nM, duplicate wells, calculated from A450
[10] = 0.3 nM, duplicate wells, calculated from A450, 0.0003 µM
[11] = 3000 nM, duplicate wells, calculated from A450
[12] = 3000 nM, duplicate wells, calculated from A450, 3 µM
[13] = 30000 nM, duplicate wells, calculated from A450
[14] = 30000 nM, duplicate wells, calculated from A450, 30 µM
[15] = Homo sapiens, NCI-H1975, 48 h, read-out: IC50 (μM) H1975, CCK-8, 48 h, average ± SD of three independent experiments
[16] = 1uM, given as fraction, Repeat 1-3

IC50 (A549 cells; Homo sapiens, A549, 48 h, read-out: IC50 (μM) A549, CCK-8, 48 h, average ± SD of three independent experiments): 4.88 ± 0.54 µM
IC50 (PC-9 cells; Homo sapiens): 3.27 ± 0.14 µM
melting point: 83 to 86 °C
inhibition at 0.0003 µM (wild-type EGFR; [9]): 17.1%
Inhibition (wild-type EGFR; [10]): 10.6583
inhibition at 0.003 µM (wild-type EGFR; 3 nM, duplicate wells, calculated from A450): 21.5%
Inhibition (wild-type EGFR; 3 nM, duplicate wells, calculated from A450, 0.003 µM): 11.5987
inhibition at 0.03 µM (wild-type EGFR; 30 nM, duplicate wells, calculated from A450): 26.3%
Inhibition (wild-type EGFR; 30 nM, duplicate wells, calculated from A450, 0.03 µM): 21.0031
inhibition at 0.3 µM (wild-type EGFR; 300 nM, duplicate wells, calculated from A450): 29.7%
Inhibition (wild-type EGFR; 300 nM, duplicate wells, calculated from A450, 0.3 µM): 21.3166
inhibition at 3 µM (wild-type EGFR; [11]): 70.9%
Inhibition (wild-type EGFR; [12]): 70.8464
inhibition at 30 µM (wild-type EGFR; [13]): 91.8%
Inhibition (wild-type EGFR; [14]): 93.4169
IC50 (wild-type EGFR): 0.69 µM
IC50 (H1975 cells; [15]): 16.5 ± 3.53 µM
IC50 (H460 cells; Homo sapiens, NCI-H460, 48 h, read-out: IC50 (μM) H460, CCK-8, 48 h, average ± SD of three independent experiments): 18.5 ± 2 µM
SMILES: COCCOc1cc2ncnc(Nc3cccc(-c4cn(-c5ccccc5F)nn4)c3)c2cc1OCCOC [e6, [6,7-Bis-(2-methoxy-ethoxy)-quinazolin-4-yl]-{3-[1-(2-fluoro-phenyl)-1H-[1,2,3]triazol-4-yl]-phenyl}-amine]
Inhibitory efficacy (A549 cells; [1]): 0.2224 and 0.3459
Inhibitory efficacy (A549 cells; [2]): 0.572 and 0.5248
Inhibitory efficacy (A549 cells; [3]): 0.6524 and 0.6253
Inhibitory efficacy (A549 cells; [4]): 0.6986 and 0.7076
inhibition at 2 µM (A549 cells; [5]): 25.8%
inhibition at 4 µM (A549 cells; [6]): 45.7%
inhibition at 8 µM (A549 cells; [7]): 63.5%
inhibition at 16 µM (A549 cells; [8]): 69.8%
inhibition at 2 µM (PC-9 cells; Homo sapiens, PC-9, read-out: Inhibitory efficacy, PC-9, 2uM, single repeats (Repeat 1-3), given as fraction): 37.3%
inhibition at 4 µM (PC-9 cells; Homo sapiens): 61.7%
inhibition at 8 µM (PC-9 cells; Homo sapiens): 77.6%
inhibition at 16 µM (PC-9 cells; Homo sapiens): 85%
Inhibitory efficacy (PC-9 cells; PC-9, 2uM, 2 µM): 0.401 and 0.3548
Inhibitory efficacy (PC-9 cells; PC-9, 4uM, 4 µM): 0.5712 and 0.6591
Inhibitory efficacy (PC-9 cells; PC-9, 8uM, 8 µM): 0.783 and 0.7626
Inhibitory efficacy (PC-9 cells; PC-9, 16uM, 16 µM): 0.8422 and 0.8588
Inhibitory efficacy (H460 cells; H460 cells, 1uM, given as fraction, Repeat 1-3): 0.0882 and 0.09728
Inhibitory efficacy (H460 cells; H460 cells, 2uM, given as fraction, Repeat 1-3): 0.2957 and 0.2477
Inhibitory efficacy (H460 cells; H460 cells, 4uM, given as fraction, Repeat 1-3): 0.4663 and 0.4358
Inhibitory efficacy (H460 cells; H460 cells, 8uM, given as fraction, Repeat 1-3): 0.4163 and 0.4008
Inhibitory efficacy (H460 cells; H460 cells, 16uM, given as fraction, Repeat 1-3): 0.4274 and 0.4066
inhibition at 1 µM (H460 cells; Homo sapiens, NCI-H460, read-out: Inhibitory efficacy, H460 cells, 1uM, given as fraction, Repeat 1-3): 14.7%
inhibition at 2 µM (H460 cells; Homo sapiens, NCI-H460, read-out: Inhibitory efficacy, H460 cells, 2uM, given as fraction, Repeat 1-3): 33.2%
inhibition at 4 µM (H460 cells; Homo sapiens, NCI-H460, read-out: Inhibitory efficacy, H460 cells, 4uM, given as fraction, Repeat 1-3): 39.8%
inhibition at 8 µM (H460 cells; Homo sapiens, NCI-H460, read-out: Inhibitory efficacy, H460 cells, 8uM, given as fraction, Repeat 1-3): 42.1%
inhibition at 16 µM (H460 cells; Homo sapiens, NCI-H460, read-out: Inhibitory efficacy, H460 cells, 16uM, given as fraction, Repeat 1-3): 44.7%

IC50 (PC-9 cells; Homo sapiens): 7.63 ± 1.69 µM
melting point: 93 to 97 °C
inhibition at 0.0003 µM (wild-type EGFR; [9]): 0.816%
Inhibition (wild-type EGFR; [10]): 0.7055
inhibition at 3 µM (wild-type EGFR; [11]): 41.4%
Inhibition (wild-type EGFR; [12]): 44.4444
inhibition at 30 µM (wild-type EGFR; [13]): 89.8%
Inhibition (wild-type EGFR; [14]): 89.9471
IC50 (wild-type EGFR): 3.83 µM
IC50 (H1975 cells; [15]): < 10 µM
IC50 (H1975 cells; read-out: IC50 (μM) H1975, CCK-8, 48 h, average ± SD of three independent experiments): 6.86 ± 0.17 µM
SMILES: COCCOc1cc2ncnc(Nc3cccc(-c4cn(-c5ccccc5Br)nn4)c3)c2cc1OCCOC [e9, [6,7-Bis-(2-methoxy-ethoxy)-quinazolin-4-yl]-{3-[1-(2-bromo-phenyl)-1H-[1,2,3]triazol-4-yl]-phenyl}-amine]
Inhibitory efficacy (A549 cells; [16]): 0.1197 and 0.1367
Inhibitory efficacy (A549 cells; [1]): 0.3287 and 0.2555
Inhibitory efficacy (A549 cells; [2]): 0.8462 and 0.8405
Inhibitory efficacy (A549 cells; [3]): 0.9628 and 0.9656
Inhibitory efficacy (A549 cells; [4]): 0.9642 and 0.9671
inhibition at 1 µM (A549 cells; Homo sapiens, A549, read-out: Inhibitory efficacy, A549 cells, 1uM, given as fraction, Repeat 1-3): 16%
inhibition at 2 µM (A549 cells; [5]): 26.7%
inhibition at 4 µM (A549 cells; [6]): 82.8%
inhibition at 8 µM (A549 cells; [7]): 95.9%
inhibition at 16 µM (A549 cells; [8]): 96.6%
inhibition at 4 µM (PC-9 cells; Homo sapiens): 42.1%
inhibition at 8 µM (PC-9 cells; Homo sapiens): 57.9%
inhibition at 16 µM (PC-9 cells; Homo sapiens): 54.2%
Inhibitory efficacy (PC-9 cells; PC-9, 4uM, 4 µM): 0.4231 and 0.428
Inhibitory efficacy (PC-9 cells; PC-9, 8uM, 8 µM): 0.5458 and 0.6686
Inhibitory efficacy (PC-9 cells; PC-9, 16uM, 16 µM): 0.5655 and 0.5078
Inhibitory efficacy (H1975 cells; [16]): 0.171 and 0.2074
Inhibitory efficacy (H1975 cells; [2]): 0.4371 and 0.3791
Inhibitory efficacy (H1975 cells; [3]): 0.5337 and 0.5679
Inhibitory efficacy (H1975 cells; [4]): 0.6418 and 0.6475
inhibition at 1 µM (H1975 cells; Homo sapiens, NCI-H1975, read-out: Inhibitory efficacy, H1975 cells, 1uM, given as fraction, Repeat 1-3): 15.5%
inhibition at 4 µM (H1975 cells; Homo sapiens, NCI-H1975, read-out: Inhibitory efficacy, H1975 cells, 4uM, given as fraction, Repeat 1-3): 37.6%
inhibition at 8 µM (H1975 cells; Homo sapiens, NCI-H1975, read-out: Inhibitory efficacy, H1975 cells, 8uM, given as fraction, Repeat 1-3): 58%
inhibition at 16 µM (H1975 cells; Homo sapiens, NCI-H1975, read-out: Inhibitory efficacy, H1975 cells, 16uM, given as fraction, Repeat 1-3): 66.8%
Inhibitory efficacy (H460 cells; H460, 2uM, single repeats (Repeat 1-3), given as fraction, 2 µM): 0.3746 and 0.3508
Inhibitory efficacy (H460 cells; H460, 4uM, single repeats (Repeat 1-3), given as fraction, 4 µM): 0.6113 and 0.6209
Inhibitory efficacy (H460 cells; H460, 8uM, single repeats (Repeat 1-3), given as fraction, 8 µM): 0.7678 and 0.7392
Inhibitory efficacy (H460 cells; H460, 16uM, single repeats (Repeat 1-3), given as fraction, 16 µM): 0.7559 and 0.7615
inhibition at 2 µM (H460 cells; Homo sapiens, NCI-H460, read-out: Inhibitory efficacy, H460, 2uM, single repeats (Repeat 1-3), given as fraction): 40.3%
inhibition at 4 µM (H460 cells; Homo sapiens, NCI-H460, read-out: Inhibitory efficacy, H460, 4uM, single repeats (Repeat 1-3), given as fraction): 72.6%
inhibition at 8 µM (H460 cells; Homo sapiens, NCI-H460, read-out: Inhibitory efficacy, H460, 8uM, single repeats (Repeat 1-3), given as fraction): 76.5%
inhibition at 16 µM (H460 cells; Homo sapiens, NCI-H460, read-out: Inhibitory efficacy, H460, 16uM, single repeats (Repeat 1-3), given as fraction): 77.3%

From PMC8776995 (Frontiers in Chemistry, 2022)
